In publication PMC6213020, “Identification of a Novel PPAR-γ Agonist through a Scaffold Tuning Approach” (International Journal of Molecular Sciences, 2018):

Tests used:
PPAR-α = biological target: T1, PPAR-α (Homo sapiens, UniProt Q07869); assay: cell-based PPAR transactivation (luciferase) assay, PPAR-α; settings: 24 h; compounds 10 µM; relative to maximum activation with GW7647 (10 µM); PPAR-Luc in CV-1 cells; read-out: % max PPAR-α
T1 construct: host or cells: CV-1
T1 sequence (Q07869 1-468): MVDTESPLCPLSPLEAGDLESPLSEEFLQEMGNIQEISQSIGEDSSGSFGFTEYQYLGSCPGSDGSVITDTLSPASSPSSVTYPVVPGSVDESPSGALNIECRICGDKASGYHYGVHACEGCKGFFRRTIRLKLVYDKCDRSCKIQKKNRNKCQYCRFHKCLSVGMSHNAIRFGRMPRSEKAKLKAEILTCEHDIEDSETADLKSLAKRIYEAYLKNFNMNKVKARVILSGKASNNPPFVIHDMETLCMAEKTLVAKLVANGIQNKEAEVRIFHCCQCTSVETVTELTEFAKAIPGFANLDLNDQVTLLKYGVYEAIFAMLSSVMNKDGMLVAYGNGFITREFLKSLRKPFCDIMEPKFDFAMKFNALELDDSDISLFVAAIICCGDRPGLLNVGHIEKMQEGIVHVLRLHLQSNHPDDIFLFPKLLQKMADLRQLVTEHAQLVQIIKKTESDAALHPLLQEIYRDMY
Experimental: (§1) The PPAR activities of the synthesized dichloroanilide-linked indole analogs were assessed using a standard cell-based transactivation assay in CV-1 cells. GW7647 [42], pioglitazone, and GW0742 [43] were used as positive controls for PPAR-α, -γ, and -δ, respectively. These three positive controls presented the maximum activation for each PPAR subtype. The activity of the compounds was presented as the activation percentage (%) relative to the maximum values of the positive controls at the indicated concentrations.
(§2) Transient transfection and luciferase assay was carried out. CV-1 cells were seeded in 48-well plates at a density of 1.5 × 10^5 cells/well in Dulbecco’s modified Eagle’s medium (DMEM) with containing 10% fetal bovine serum (FBS). The cells were transiently transfected with plasmid mixtures containing PPAR-α/γ expression vector and tk-PPRE-luciferase (Luc) vector for 6 h and then treated with the samples for 24 h. HEK293t cells were seeded in a 60-mm dish at a density of 1.5 × 10^6 cells/dish. After transfection with the plasmid mixtures containing PPAR-δ expression vector and Luc vector for 6 h, the cells were transferred to a 96-well plate and treated with the samples. To normalize the transfection efficiency, a β-galactosidase plasmid was cotransfected. The luciferase activity in the cell lysates was measured using a luciferase assay system (Promega Corp., Madison, WI, USA), and the β-galactosidase activity was determined by measuring the absorbance at 410 nm using an ELISA plate reader. The data were expressed as the relative luciferase activity divided by the β-galactosidase activity. All constructs were kindly gifted by Dr. Ronald M. Evans at The Salk Institute (La Jolla, CA, USA).

PPAR-γ = biological target: T2, PPAR-γ (Homo sapiens, UniProt P37231); assay: cell-based PPAR transactivation (luciferase) assay, PPAR-γ; settings: for activation at 10 µM: 24 h, compounds 10 µM, relative to maximum activation with pioglitazone (10 µM), PPAR-Luc in CV-1 cells, read-out: % max PPAR-γ; for agonistic activity to PPARs, in words: transactivation assay, all PPAR subtypes
T2 construct: host or cells: CV-1
T2 sequence (P37231 1-505): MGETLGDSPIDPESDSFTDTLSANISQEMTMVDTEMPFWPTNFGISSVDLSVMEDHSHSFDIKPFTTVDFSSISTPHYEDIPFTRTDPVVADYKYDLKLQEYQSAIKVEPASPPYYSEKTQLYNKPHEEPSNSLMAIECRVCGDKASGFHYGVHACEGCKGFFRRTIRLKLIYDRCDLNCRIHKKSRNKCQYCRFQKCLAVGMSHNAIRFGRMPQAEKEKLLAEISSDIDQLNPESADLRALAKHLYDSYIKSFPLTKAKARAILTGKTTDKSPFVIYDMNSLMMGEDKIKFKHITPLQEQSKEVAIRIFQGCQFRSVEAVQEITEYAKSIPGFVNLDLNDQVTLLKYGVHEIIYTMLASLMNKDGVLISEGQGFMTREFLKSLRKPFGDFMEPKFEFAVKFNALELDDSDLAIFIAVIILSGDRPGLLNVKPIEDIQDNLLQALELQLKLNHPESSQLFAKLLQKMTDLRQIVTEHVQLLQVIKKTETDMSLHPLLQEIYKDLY
Experimental: as §1, §2

PPAR-δ = biological target: T3, PPAR-δ (Homo sapiens, UniProt Q03181); assay: cell-based PPAR transactivation (luciferase) assay, PPAR-δ; settings: compounds 10 µM; relative to maximum activation with GW0742 (10 μM); PPAR-Luc in HEK293t cells; read-out: % max PPAR-δ
T3 construct: host or cells: HEK293t
T3 sequence (Q03181 1-441): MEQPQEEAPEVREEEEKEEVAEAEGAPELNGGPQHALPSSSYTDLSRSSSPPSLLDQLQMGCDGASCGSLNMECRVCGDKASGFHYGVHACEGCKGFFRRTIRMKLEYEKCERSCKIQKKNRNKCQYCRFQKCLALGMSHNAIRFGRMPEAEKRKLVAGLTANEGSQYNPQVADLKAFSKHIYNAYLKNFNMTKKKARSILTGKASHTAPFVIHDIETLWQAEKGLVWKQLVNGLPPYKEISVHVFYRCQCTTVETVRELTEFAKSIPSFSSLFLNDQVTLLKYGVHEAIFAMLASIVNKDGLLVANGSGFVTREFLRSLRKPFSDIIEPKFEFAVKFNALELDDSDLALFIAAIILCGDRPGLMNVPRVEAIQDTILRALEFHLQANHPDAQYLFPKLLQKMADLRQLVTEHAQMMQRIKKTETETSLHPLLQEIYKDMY
Experimental: as §1, §2

db/db mice = test system: db/db mice; design: method as in PMID 21482466, PMID 23265886, PMID 25982078; settings: cited from earlier work

| Structure (SMILES) | activation at 10 µM (PPAR-α) | activation at 10 µM (PPAR-γ) | activation at 10 µM (PPAR-δ) | accumulation of lipids and size of the adipocytes (db/db mice) | blood glucose level (db/db mice) | glycated hemoglobin (HbA1c) level (db/db mice) | insulin level (db/db mice) | weight gain (db/db mice) | agonistic activity to PPARs, in words (PPAR-γ) |
| --- | --- | --- | --- | --- | --- | --- | --- | --- | --- |
| O=C(O)Cc1cn(Cc2ccccc2)c2cc(OCC(=O)Nc3ccc(Cl)cc3Cl)ccc12 [Compound 8, 2-(1-Benzyl-6-(2-((2,4-dichlorophenyl)amino)-2-oxoethoxy)-1H-indol-3-yl)acetic acid] | 31.68 ± 0.22% | 71.9 ± 0.91% | 65.4 ± 0.7% |  |  |  |  |  |  |
| O=C(O)Cc1cn(Cc2ccccc2)c2ccc(OCC(=O)Nc3ccc(Cl)cc3Cl)cc12 [Compound 7, 2-(1-Benzyl-5-(2-((2,4-dichlorophenyl)amino)-2-oxoethoxy)-1H-indol-3-yl)acetic acid] | 21.41 ± 0.21% | 31.2 ± 0.38% | 44.4 ± 0.77% |  |  |  |  |  |  |
| O=C(COc1ccc2ccn(Cc3ccc(C(=O)O)cc3)c2c1)Nc1ccc(Cl)cc1Cl [Compound 17, 4-((6-(2-((2,4-Dichlorophenyl)amino)-2-oxoethoxy)-1H-indol-1-yl)methyl)benzoic acid] | -14.4 ± 0.16% | -0.84 ± 0.16% | 4.87 ± 0.24% |  |  |  |  |  |  |
| O=C(O)Cc1cn(Cc2ccccc2)c2ccc(OCCCOc3cccc(OCc4ccc(Cl)cc4)c3)cc12 [Compound 2] |  |  |  | reduced | lowered | lowered | lowered | without causing weight gain |  |
| O=C(COc1ccc2c(ccn2Cc2ccc(C(=O)O)cc2)c1)Nc1ccc(Cl)cc1Cl [Compound 16, 4-((5-(2-((2,4-Dichlorophenyl)amino)-2-oxoethoxy)-1H-indol-1-yl)methyl)benzoic acid] | -19.98 ± 0.08% | 0.29 ± 0.06% | -1.07 ± 0.14% |  |  |  |  |  |  |
| CC(C)=CCc1cn(Cc2ccccc2C(=O)O)c2cc(OCC(=O)Nc3ccc(Cl)cc3Cl)ccc12 [Compound 21, 2-((6-(2-((2,4-Dichlorophenyl)amino)-2-oxoethoxy)-3-(3-methylbut-2-en-1-yl)-1H-indol-1-yl)methyl)benzoic acid] | -2.3 ± 0.19% | 9.55 ± 0.32% | 22.2 ± 0.59% |  |  |  |  |  |  |
| O=C(O)Cc1c[nH]c2cc(OCC(=O)Nc3ccc(Cl)cc3Cl)ccc12 [Compound 6, 2-(6-(2-((2,4-Dichlorophenyl)amino)-2-oxoethoxy)-1H-indol-3-yl)acetic acid] | 1.12 ± 0.24% | 8.66 ± 0.23% | 8.27 ± 0.33% |  |  |  |  |  | minimum agonistic activities |
| O=C(COc1ccc2c(ccn2Cc2cccc(C(=O)O)c2)c1)Nc1ccc(Cl)cc1Cl [Compound 14, 3-((5-(2-((2,4-Dichlorophenyl)amino)-2-oxoethoxy)-1H-indol-1-yl)methyl)benzoic acid] | 10.33 ± 0.07% | 42 ± 0.52% | 23.9 ± 0.51% |  |  |  |  |  |  |
| O=C(O)Cc1c[nH]c2ccc(OCC(=O)Nc3ccc(Cl)cc3Cl)cc12 [Compound 5, 2-(5-(2-((2,4-Dichlorophenyl)amino)-2-oxoethoxy)-1H-indol-3-yl)acetic acid] | -38.13 ± 0.06% | 5.6 ± 0.14% | 11.8 ± 0.35% |  |  |  |  |  | minimum agonistic activities |
| CC(C)=CCc1cn(Cc2ccccc2C(=O)O)c2ccc(OCC(=O)Nc3ccc(Cl)cc3Cl)cc12 [Compound 20, 2-((5-(2-((2,4-Dichlorophenyl)amino)-2-oxoethoxy)-3-(3-methylbut-2-en-1-yl)-1H-indol-1-yl)methyl)benzoic acid] | -5.93 ± 0.14% | 5.1 ± 0.2% | 8.92 ± 0.48% |  |  |  |  |  |  |
| O=C(COc1ccc2c(Cc3ccccc3)cn(Cc3ccccc3C(=O)O)c2c1)Nc1ccc(Cl)cc1Cl [Compound 19, 2-((3-Benzyl-6-(2-((2,4-dichlorophenyl)amino)-2-oxoethoxy)-1H-indol-1-yl)methyl)benzoic acid] | 7.25 ± 0.12% | 19.03 ± 0.13% | 19.4 ± 0.54% |  |  |  |  |  |  |
